Reference: the supplement of paper PMC11208160
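Also: IS621 bridge recombinase in Escherichia coli cells against a fixed T5 target plasmid.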

Assay: recombinant UMI read abundance after kanamycin selection (control-corrected) (log10(CPM+1)); higher = more efficient recombination; extreme values may be limits of the assay; sequences stand for … in AGTGCAGAGAAAATCGGCCAGTTTTCTCTGCCTGCAGTCCGCATGCCGTGGGACCCCTTGGGTTCTAACCTGTTGCCTAGATTTATGCAGCGGACTGCCTTTCTCCCAAAGTGATAAACCGG…AGGTTGGTTTCACT; site = the 11-nt donor
Outline: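 Values are reported as log10(CPM+1), obtained by converting sequencing counts to CPM, averaging replicates and scaling by control-derived factors. The counts came from recombinant UMIs amplified by PCR across the donor–target junction. These UMIs came from a pooled Escherichia coli screen of donor and donor-binding-loop pairs for the IS621 bridge recombinase, plated with IPTG (0.07 mM) plus kanamycin or left unselected, in two replicates each.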
For “CGCCGTACATGGACCGGTTTTCCCGGTAATCCGTATTTGCA (site CGCCGTACTTG)”, the “recombinant UMI read abundance (log10)” value was 2.07.
In the case of “CGCCGTACATGGACCGGTTTTCCCGGTAATCCGTATTTGGT (site CGCCGTACTAA)”, the “recombinant UMI read abundance (log10)” value is reported as 0.0124.
For “CGCCGTACATGGACCGGTTTTCCCGGTAATCCGTATTTGGT (site CGCCGTACTAC)”, the “recombinant UMI read abundance (log10)” value was 0.57.
In the case of “CGCCGTACATGGACCGGTTTTCCCGGTAATCCGTATTTGGT (site CGCCGTACTAG)”, the “recombinant UMI read abundance (log10)” value is reported as 0.
In the case of “CGCCGTACATGGACCGGTTTTCCCGGTAATCCGTATTTGGT (site CGCCGTACTAT)”, the “recombinant UMI read abundance (log10)” value is reported as 0.321.
For “CGCCTGTCATGGACCGGTTTTCCCGGTAATCCGTATTTGTT (site CGCCTGTCTAA)”, the “recombinant UMI read abundance (log10)” value was 0.902.
With “CGCCTTCCATGGACCGGTTTTCCCGGTAATCCGTATTTGGT (site CGCCTTCCTAC)” the “recombinant UMI read abundance (log10)” value was 0.0121.
In the case of “CGCGGAACATGGACCGGTTTTCCCGGTAATCCGTATTTGTT (site CGAGGAACTAA)”, the “recombinant UMI read abundance (log10)” value is reported as 0.0752.
In the case of “CGCGGAACATGGACCGGTTTTCCCGGTAATCCGTATTTGTT (site CGCGGAACTAA)”, the “recombinant UMI read abundance (log10)” value is reported as 2.39.
With “CGCGGAACATGGACCGGTTTTCCCGGTAATCCGTATTTGTT (site CGGGGAACTAA)” the “recombinant UMI read abundance (log10)” value was 0.0138.
For “CGCGGAACATGGACCGGTTTTCCCGGTAATCCGTATTTGTT (site CGTGGAACTAA)”, the “recombinant UMI read abundance (log10)” value was 0.00441.
With “CGCGGAGCATGGACCGGTTTTCCCGGTAATCCGTATTTGGC (site CGCGGAGCTGC)” the “recombinant UMI read abundance (log10)” value was 0.884.
For “CGCGGAGCATGGACCGGTTTTCCCGGTAATCCGTATTTGGT (site CGCGGAGCTAC)”, the “recombinant UMI read abundance (log10)” value was 1.14.
In the case of “CGCGTTCCATGGACCGGTTTTCCCGGTAATCCGTATTTGGA (site CGCGTTCCTTC)”, the “recombinant UMI read abundance (log10)” value is reported as 0.
For “CGCTCCTCATGGACCGGTTTTCCCGGTAATCCGTATTTGCT (site CGATCATCTAG)”, the “recombinant UMI read abundance (log10)” value was 0.
In the case of “CGCTCCTCATGGACCGGTTTTCCCGGTAATCCGTATTTGCT (site CGCTCCTCTAG)”, the “recombinant UMI read abundance (log10)” value is reported as 3.07.
In the case of “CGCTCCTCATGGACCGGTTTTCCCGGTAATCCGTATTTGTG (site CGCTCCTCTCA)”, the “recombinant UMI read abundance (log10)” value is reported as 0.976.
For “CGCTTAGCATGGACCGGTTTTCCCGGTAATCCGTATTTGTA (site CGCTTAGCTTA)”, the “recombinant UMI read abundance (log10)” value was 1.88.
With “CGCTTTCCATGGACCGGTTTTCCCGGTAATCCGTATTTGGT (site CGCTTTCCTAC)” the “recombinant UMI read abundance (log10)” value was 0.
In the case of “CGCTTTGCATGGACCGGTTTTCCCGGTAATCCGTATTTGGT (site CGCTTTGCTAC)”, the “recombinant UMI read abundance (log10)” value is reported as 1.08.
For “CGGAAACCATGGACCGGTTTTCCCGGTAATCCGTATTTGAT (site CGGAAACCTAT)”, the “recombinant UMI read abundance (log10)” value was 0.
For “CGGAAACCATGGACCGGTTTTCCCGGTAATCCGTATTTGAT (site CGGCAACCTAT)”, the “recombinant UMI read abundance (log10)” value was 0.00975.
For “CGGAAACCATGGACCGGTTTTCCCGGTAATCCGTATTTGAT (site CGGGAACCTAT)”, the “recombinant UMI read abundance (log10)” value was 0.
With “CGGAAACCATGGACCGGTTTTCCCGGTAATCCGTATTTGAT (site CGGTAACCTAT)” the “recombinant UMI read abundance (log10)” value was 0.
In the case of “CGGAAACCATGGACCGGTTTTCCCGGTAATCCGTATTTGTA (site CGGAAACCTTA)”, the “recombinant UMI read abundance (log10)” value is reported as 0.
With “CGGAAACCATGGACCGGTTTTCCCGGTAATCCGTATTTGTA (site CGGAATCCTAA)” the “recombinant UMI read abundance (log10)” value was 0.
For “CGGAAACCATGGACCGGTTTTCCCGGTAATCCGTATTTGTT (site CGGAAACCTAA)”, the “recombinant UMI read abundance (log10)” value was 0.
In the case of “CGGAAACCATGGACCGGTTTTCCCGGTAATCCGTATTTGTT (site CGGAACCCTAA)”, the “recombinant UMI read abundance (log10)” value is reported as 0.00618.
With “CGGAAACCATGGACCGGTTTTCCCGGTAATCCGTATTTGTT (site CGGAAGCCTAA)” the “recombinant UMI read abundance (log10)” value was 0.00793.
With “CGGAAACCATGGACCGGTTTTCCCGGTAATCCGTATTTGTT (site CGGAATCCTAA)” the “recombinant UMI read abundance (log10)” value was 0.
For “CGGAAATCATGGACCGGTTTTCCCGGTAATCCGTATTTGTT (site CGGAAATCTAA)”, the “recombinant UMI read abundance (log10)” value was 2.29.
In the case of “CGGAAATCATGGACCGGTTTTCCCGGTAATCCGTATTTGTT (site CGGAATCCTAA)”, the “recombinant UMI read abundance (log10)” value is reported as 0.
In the case of “CGGAACCCATGGACCGGTTTTCCCGGTAATCCGTATTTGTT (site CGGAAACCTAA)”, the “recombinant UMI read abundance (log10)” value is reported as 0.0541.
In the case of “CGGAACCCATGGACCGGTTTTCCCGGTAATCCGTATTTGTT (site CGGAACCCTAA)”, the “recombinant UMI read abundance (log10)” value is reported as 0.964.
With “CGGAACCCATGGACCGGTTTTCCCGGTAATCCGTATTTGTT (site CGGAAGCCTAA)” the “recombinant UMI read abundance (log10)” value was 0.00321.
For “CGGAACCCATGGACCGGTTTTCCCGGTAATCCGTATTTGTT (site CGGAATCCTAA)”, the “recombinant UMI read abundance (log10)” value was 0.208.
In the case of “CGGAAGACATGGACCGGTTTTCCCGGTAATCCGTATTTGAA (site AGGAAGACTTG)”, the “recombinant UMI read abundance (log10)” value is reported as 0.
In the case of “CGGAAGACATGGACCGGTTTTCCCGGTAATCCGTATTTGAA (site CGGAAGACTTT)”, the “recombinant UMI read abundance (log10)” value is reported as 2.24.
With “CGGAAGCCATGGACCGGTTTTCCCGGTAATCCGTATTTGTT (site CGGAAACCTAA)” the “recombinant UMI read abundance (log10)” value was 0.
In the case of “CGGAAGCCATGGACCGGTTTTCCCGGTAATCCGTATTTGTT (site CGGAACCCTAA)”, the “recombinant UMI read abundance (log10)” value is reported as 0.00486.
For “CGGAAGCCATGGACCGGTTTTCCCGGTAATCCGTATTTGTT (site CGGAAGCCTAA)”, the “recombinant UMI read abundance (log10)” value was 0.218.
In the case of “CGGAAGCCATGGACCGGTTTTCCCGGTAATCCGTATTTGTT (site CGGAATCCTAA)”, the “recombinant UMI read abundance (log10)” value is reported as 0.
With “CGGAAGTCATGGACCGGTTTTCCCGGTAATCCGTATTTGCC (site CGGAAGTCTGG)” the “recombinant UMI read abundance (log10)” value was 2.88.
For “CGGAAGTCATGGACCGGTTTTCCCGGTAATCCGTATTTGCC (site CGGCAGTCTGG)”, the “recombinant UMI read abundance (log10)” value was 0.
For “CGGAAGTCATGGACCGGTTTTCCCGGTAATCCGTATTTGCC (site CGGGAGTCTGG)”, the “recombinant UMI read abundance (log10)” value was 0.686.
For “CGGAAGTCATGGACCGGTTTTCCCGGTAATCCGTATTTGCC (site CGGTAGTCTGG)”, the “recombinant UMI read abundance (log10)” value was 1.08.
In the case of “CGGAATACATGGACCGGTTTTCCCGGTAATCCGTATTTGAT (site CGGAATACTAT)”, the “recombinant UMI read abundance (log10)” value is reported as 2.16.
In the case of “CGGAATACATGGACCGGTTTTCCCGGTAATCCGTATTTGAT (site CGGAATCCTAA)”, the “recombinant UMI read abundance (log10)” value is reported as 0.
With “CGGAATCCATGGACCGGTTTTCCCGGTAATCCGTATTTGCT (site CGGAATCCTAA)” the “recombinant UMI read abundance (log10)” value was 0.106.
In the case of “CGGAATCCATGGACCGGTTTTCCCGGTAATCCGTATTTGCT (site CGGAATCCTAC)”, the “recombinant UMI read abundance (log10)” value is reported as 0.
In the case of “CGGAATCCATGGACCGGTTTTCCCGGTAATCCGTATTTGCT (site CGGAATCCTAG)”, the “recombinant UMI read abundance (log10)” value is reported as 2.08.
With “CGGAATCCATGGACCGGTTTTCCCGGTAATCCGTATTTGCT (site CGGAATCCTAT)” the “recombinant UMI read abundance (log10)” value was 0.767.
For “CGGAATCCATGGACCGGTTTTCCCGGTAATCCGTATTTGTC (site CGGAATCCTAA)”, the “recombinant UMI read abundance (log10)” value was 0.
For “CGGAATCCATGGACCGGTTTTCCCGGTAATCCGTATTTGTC (site CGGAATCCTCA)”, the “recombinant UMI read abundance (log10)” value was 0.00507.
For “CGGAATCCATGGACCGGTTTTCCCGGTAATCCGTATTTGTC (site CGGAATCCTGA)”, the “recombinant UMI read abundance (log10)” value was 2.06.
For “CGGAATCCATGGACCGGTTTTCCCGGTAATCCGTATTTGTC (site CGGAATCCTTA)”, the “recombinant UMI read abundance (log10)” value was 0.
For “CGGAATGCATGGACCGGTTTTCCCGGTAATCCGTATTTGTT (site CGGAATACTAA)”, the “recombinant UMI read abundance (log10)” value was 2.
For “CGGAATGCATGGACCGGTTTTCCCGGTAATCCGTATTTGTT (site CGGAATCCTAA)”, the “recombinant UMI read abundance (log10)” value was 0.00325.
In the case of “CGGAATGCATGGACCGGTTTTCCCGGTAATCCGTATTTGTT (site CGGAATGCTAA)”, the “recombinant UMI read abundance (log10)” value is reported as 2.84.
For “CGGAATGCATGGACCGGTTTTCCCGGTAATCCGTATTTGTT (site CGGAATTCTAA)”, the “recombinant UMI read abundance (log10)” value was 0.
In the case of “CGGACACCATGGACCGGTTTTCCCGGTAATCCGTATTTGCT (site CGGACAACTAG)”, the “recombinant UMI read abundance (log10)” value is reported as 0.
With “CGGACACCATGGACCGGTTTTCCCGGTAATCCGTATTTGCT (site CGGACACCTAG)” the “recombinant UMI read abundance (log10)” value was 0.
For “CGGACACCATGGACCGGTTTTCCCGGTAATCCGTATTTGCT (site CGGACAGCTAG)”, the “recombinant UMI read abundance (log10)” value was 0.00902.
In the case of “CGGACACCATGGACCGGTTTTCCCGGTAATCCGTATTTGCT (site CGGACATCTAG)”, the “recombinant UMI read abundance (log10)” value is reported as 0.
In the case of “CGGACAGCATGGACCGGTTTTCCCGGTAATCCGTATTTGCT (site CGGACAACTAG)”, the “recombinant UMI read abundance (log10)” value is reported as 0.393.
For “CGGACAGCATGGACCGGTTTTCCCGGTAATCCGTATTTGCT (site CGGACACCTAG)”, the “recombinant UMI read abundance (log10)” value was 0.
With “CGGACAGCATGGACCGGTTTTCCCGGTAATCCGTATTTGCT (site CGGACAGCTAG)” the “recombinant UMI read abundance (log10)” value was 2.07.
With “CGGACAGCATGGACCGGTTTTCCCGGTAATCCGTATTTGCT (site CGGACATCTAG)” the “recombinant UMI read abundance (log10)” value was 0.
